“Also recorded” adds a separate entry of the source. Read-outs that look alike come from different tables or passages of the source.
Key:
[1] = molecular target: T1, xanthine oxidase (Homo sapiens, UniProt P47989); settings: intravascular concentration of 10 μg/ml; cited from earlier work
T1 construct: host or cells: forearm blood vessels, in vivo infusion of oxypurinol

[2] = compared to allopurinol; cited from earlier work
[3] = tested on: HbA and HbS red cells; test: Red cell nitric oxide consumption; format: cell-based, human; settings: extracellular CuZn SOD 100 U ml^−1; DMNQ 100 μM
Text: Values represent mean±SEM (n=4 to 14). Statistical analysis was by two-way ANOVA with Tukey post hoc test. *, p<0.05 compared with basal;
Accepting that *NO reacts at almost diffusion-limited rates with O2.— (25), the relative rates of red cell .NO consumption was utilized to probe for differences in both intra-and extracellular O2.— (and possibly LOO—) production by HbA and HbS red cells. […] The presence of endogenous lipid hydroperoxides was undetectable in both HbA and HbS RBC membranes.

[4] = tested on: eNOS; test: NOS activity in lysates of BAEC after oxidant stress; format: cell-based, bovine; settings: 2 hr, mean ± SEM, n = 3
Text: Also, XO can serve as a source of H2O2 that in turn will support the oxidative reactions of myeloperoxidase (NO consumption and the generation of chlorinating, nitrating and oxidizing species). Another potential mechanism explaining XO inhibition of endothelial-dependent relaxation and cGMP formation may be oxidant-induced changes in the expression and/or activity of eNOS, especially during more chronic exposure to reactive oxygen species. Bovine aortic endothelial cells (BAEC) were exposed to the redox-cycling quinone 2,3-dimethoxynapthoquinone (DMNQ), which generates controllable and low rates of O2.— and H2O2. Following treatment with DMNQ for 2 hr, the capacity of endothelial cell lysates to oxidize arginine to citrulline was used to indicate eNOS activity. Additional cells were incubated with 10 mU/ml XO for 1 hr, extensively washed and 100 μM xanthine was added during a 1 hr post-incubation period.

[5] = tested on: aorta of SCD mice; test: Vessel O2.- production by coelenterazine-enhanced chemiluminescence; format: cell-based, mouse; settings: for rates of O2.— production enhanced by xanthine: SCD mouse vessels pretreated, CuZn SOD 30 U/ml, allopurinol 100 μM, BOF-4272 25 μM
Text: Values represent mean±SD (n=4). Statistical analysis was by two-way ANOVA with the Duncan's post hoc test. *, p<0.05 compared to control. +, p<0.05 compared to xanthine-treated sickle cell vessels. **, […] compared to control and all treated vessel groups.

[6] = at pharmacologic concentrations; cited from earlier work
[7] = tested on: myocardial ischemia-reperfusion injury; settings: rabbit; cited from earlier work
[8] = tested on: myocardial ischemia-reperfusion injury; settings: clinical; cited from earlier work
[9] = tested on: aortic rings; test: Acetylcholine relaxation of aortic rings pre-incubated with XO; format: cell-based; settings: rings incubated with XO 10 mU/ml 1 hr, washed; xanthine in buffer; heparin 10-1000 U/ml, allopurinol 10-250 μM
Description: (§1) Increased cell-associated XO can impair endothelial-dependent vascular signaling. When isolated aortic ring segments are incubated with XO for 1 hr and then extensively washed to remove unbound XO, endothelial-dependent relaxations in response to acetylcholine are diminished when the XO substrate xanthine is present in the buffer (FIG. 2A). Inhibition of endothelial-dependent relaxation is abrogated by post-washing treatment of the aortic rings with the XO inhibitor allopurinol, as well as heparin, which inhibits and/or competes for XO binding to endothelial cell GAGs. This ex vivo model of vascular dysfunction reinforces observations made in a model of atherosclerosis. […] Importantly, there appears to be sufficient substrate in the vasculature for XO to catalyze elevated oxidant production, without the need for exogenously added purine.

[10] = tested on: vessel rings prepared from sickle cell mice; test: Relaxation of vessel rings from sickle cell mice to NO-dependent stimuli; format: cell-based, mouse; settings: MnTE-2-PyP 50 μM, allopurinol 50 μM
[11] = tested on: aortic rings; test: Acetylcholine relaxation of aortic rings from cholesterol-fed rabbits; format: cell-based, rabbit; settings: rings from rabbits on 1% cholesterol diet (6 weeks); heparin 1000 U/ml, allopurinol 100 μM
Description: as §1

[12] = tested on: guanylate cyclase; test: Ionomycin-induced .NO-dependent cGMP formation, XO-exposed endothelial cells with smooth muscle cells; format: cell-based, bovine; settings: BAEC exposed to XO 10 mU/ml 3 hr, washed; xanthine 100 μM, ionomycin 6.7 μM, 15 min; cGMP by ELISA
Description: Endothelial cells were cultured on Transwell filters and exposed to XO (10 mU/ml) for 3 hr and washed extensively. Filters were then transferred to dishes containing smooth muscle cells and incubated with xanthine (100 μM) and ionomycin (6.7 μM)±allopurinol for 15 min. cGMP was then determined by ELISA. (n=3);
Bovine aortic endothelial cell (BAEC) monolayers having bound and potentially internalized XO manifested an impaired ability to support ionomycin-induced, .NO-dependent cGMP formation by adjacent smooth muscle cells.

[13] = tested on: HbA and HbS red cells; test: Red cell O2.- release by cytochrome c reduction; format: cell-based, human
Description: If red blood cells from sickle cell patients produce increased amounts of O2. and H2O2 as compared to red blood cells from healthy donors, then local depletion of .NO might be explained on this basis. […] The mean Hb content of HbA and HbS red cell preparations was similar. DMNQ (100 μM) was added to stimulate red cell O2.— production.
Blood was collected from healthy HbA adult volunteers and homozygous HbS patients in anticoagulated (EDTA) vacu-containers. All individuals were evaluated for cytochrome b5 reductatse and glucose-6-phosphate dehydorgenase activity and none were reported deficient. […] Packed RBCs were diluted to a hematocrit of 2.5% (vol/vol) hemoglobin concentrations as determined with Drabkin's reagent at 540 nm, and rates of O2. release over 2 hours were quanitifed spectrophotometrically by CuZn SOD-inhibitable (100 units/ml, equivalent to approximately 33 ug/ml SOD) reduction of cytochrome c (50 uM) at 550 nm(εM=21 mM^−1cm^−1). In some experiments, O2. release was measured in cells pretreated with DMNQ (Oxis, 100 uM), 3-hydroxy-1,2-dimethyl-4-pyridone (HDP, Aldrich, 0.5 mM), and 4,4-diisothiocyano-2,2 disulfonic acid stilbene (DIDS, Sigma, 200 uM). Possible Hb intereference in determination of rates of cytochrome c reduction was evaluated by performing a singular value decomposition analysis (Matlab, Mathworks, Natick, Mass.).

[14] = tested on: cultured endothelial cells; settings: heparin on bound XO; enzymes as pretreatment of cells; cited from earlier work

T1 sequence (P47989 whole entry, the tested form may be a part): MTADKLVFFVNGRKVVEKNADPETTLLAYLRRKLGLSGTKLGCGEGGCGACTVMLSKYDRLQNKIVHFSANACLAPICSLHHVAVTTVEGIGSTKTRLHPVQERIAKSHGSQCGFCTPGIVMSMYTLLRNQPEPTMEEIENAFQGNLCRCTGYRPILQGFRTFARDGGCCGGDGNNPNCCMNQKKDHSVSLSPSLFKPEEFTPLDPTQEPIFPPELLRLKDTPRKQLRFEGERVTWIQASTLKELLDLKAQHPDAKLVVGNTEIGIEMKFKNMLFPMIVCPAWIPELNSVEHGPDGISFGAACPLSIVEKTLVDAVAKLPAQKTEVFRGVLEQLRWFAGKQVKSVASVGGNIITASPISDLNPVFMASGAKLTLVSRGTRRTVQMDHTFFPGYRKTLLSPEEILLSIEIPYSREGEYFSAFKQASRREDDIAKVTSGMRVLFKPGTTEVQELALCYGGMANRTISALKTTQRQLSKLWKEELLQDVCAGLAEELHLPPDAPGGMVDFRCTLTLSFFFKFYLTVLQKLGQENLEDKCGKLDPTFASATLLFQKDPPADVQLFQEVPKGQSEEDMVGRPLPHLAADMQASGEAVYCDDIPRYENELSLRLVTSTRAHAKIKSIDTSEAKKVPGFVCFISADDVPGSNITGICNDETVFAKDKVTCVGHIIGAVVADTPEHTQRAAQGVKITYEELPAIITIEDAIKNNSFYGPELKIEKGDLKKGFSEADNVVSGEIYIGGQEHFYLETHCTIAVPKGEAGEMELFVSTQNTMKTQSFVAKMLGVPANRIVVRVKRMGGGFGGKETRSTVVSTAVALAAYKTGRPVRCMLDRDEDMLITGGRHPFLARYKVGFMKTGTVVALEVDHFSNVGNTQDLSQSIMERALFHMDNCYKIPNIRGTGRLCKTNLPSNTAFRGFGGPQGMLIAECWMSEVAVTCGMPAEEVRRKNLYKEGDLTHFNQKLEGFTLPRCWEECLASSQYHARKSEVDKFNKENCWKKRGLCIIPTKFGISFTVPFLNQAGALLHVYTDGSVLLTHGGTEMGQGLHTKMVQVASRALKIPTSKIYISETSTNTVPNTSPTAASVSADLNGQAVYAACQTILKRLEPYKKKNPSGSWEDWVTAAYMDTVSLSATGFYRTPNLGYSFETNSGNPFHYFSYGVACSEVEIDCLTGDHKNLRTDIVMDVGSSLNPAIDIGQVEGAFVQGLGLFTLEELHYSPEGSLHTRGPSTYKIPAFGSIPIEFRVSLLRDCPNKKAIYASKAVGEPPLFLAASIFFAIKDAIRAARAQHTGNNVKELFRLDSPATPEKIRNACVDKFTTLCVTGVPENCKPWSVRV

O=c1[nH]c(=O)c2c[nH]nc2[nH]1 [Oxypurinol]
inhibition of xanthine oxidase activity in the forearm blood vessels [1]: greater than 90%
water solubility [2]: increased water solubility as compared to allopurinol

COC1=C(OC)C(=O)c2ccccc2C1=O [DMNQ, 2,3-dimethoxynapthoquinone]
rate of .NO consumption [3]: significantly increased rates of red cell .NO consumption
NOS activity ([4]; DMNQ 5 μM): 0.75 ± 0.09 pmol/min/mg prot
NOS activity ([4]; DMNQ 50 μM): 0.49 ± 0.60 pmol/min/mg prot
rates of O2. production ([5]; DMNQ 100 μM, positive control, both control and SCD mouse vessels): significantly enhanced rates of O2. production

Oc1ncnc2[nH]ncc12 [allopurinol]
direct antioxidant properties [6]: no direct antioxidant properties
rates of O2.— production enhanced by xanthine [5]: returned to basal rates
myocardial ischemia-reperfusion injury [7]: attenuated
myocardial ischemia-reperfusion injury [8]: attenuated
reversal of XO-induced reduction of vasodilation in response to acetylcholine [9]: reversible; also recorded: abrogated
vessel relaxation in response to NO-dependent stimuli [10]: reversal of impaired vessel relaxation
restoration of endothelial-dependent relaxation [11]: partially restored endothelial-dependent relaxation; also recorded: significantly reversed
reversal of XO inhibition of .NO-mediated cGMP formation [12]: reversible

Cc1c(O)c(=O)ccn1C [HDP, 3-hydroxy-1,2-dimethyl-4-pyridone]
decrease in O2.— ([13]; preincubation with HDP 0.5 mM, 150 mm Hg O2, pH 7.4): ~36%

CuZn SOD: CuZn superoxide dismutase, O2.- scavenging enzyme
rate of .NO consumption [3]: did not impact on the rate of .NO consumption
rates of O2.— production enhanced by xanthine [5]: returned to basal rates

O=S(=O)(O)c1cc(N=C=S)ccc1C=Cc1ccc(N=C=S)cc1S(=O)(=O)O [DDS, 4,4-diisothiocyano-2,2 disulfonic acid stilbene]
decrease in rates of cytochrome c reduction ([13]; pretreated with 200 μM, both HbA and HbS red cells): ~35%

heparin
effect on XO binding to endothelium [14]: partially displaced
reversal of XO-induced reduction of vasodilation in response to acetylcholine [9]: reversible; also recorded: abrogated
restoration of endothelial-dependent relaxation [11]: partially restored endothelial-dependent relaxation; also recorded: significantly reversed

COc1cc(-c2cnn3c(=O)nc[n-]c23)ccc1[S+]([O-])c1ccccc1.[Na+] (stereo not shown) [BOF-4272]
rates of O2.— production enhanced by xanthine [5]: returned to basal rates

— US20030158213A1, “Xanthine oxidase inhibition as a strategy to alleviate oxidative impairment of vascular function” (priority 2001, published 2003)
